Measurements from patent publication US10626109B2, “N-hetaryl(thio)carbonyl-2-(benzocycloalken-1-yl)cyclamines and their use as fungicides” (BAYER CROPSCIENCE AKTIENGESELLSCHAFT, priority 2013, dated 2020).
Like-named read-outs stand apart in the source and are kept apart here.

Assay: log P by HPLC on reversed-phase column (C 18), EEC Directive 79/831 Annex V.A8
Format: physicochemical
Protocol: In table 1, the log P values were determined in accordance with EEC Directive 79/831 Annex V.A8 by HPLC (High Performance Liquid Chromatography) on a reversed-phase column (C 18), using the method described below: Temperature: 40° C.; Mobile phases: 0.1% aqueous formic acid and acetonitrile; linear gradient from 10% acetonitrile to 90% acetonitrile. Calibration was carried out using unbranched alkan-2-ones (comprising 3 to 16 carbon atoms) with known log P values (determination of the log P values by the retention times using linear interpolation between two successive alkanones). lambda-max-values were determined using UV-spectra from 200 nm to 400 nm and the peak values of the chromatographic signals. In table 2, M+H (Apcl+) and log P are defined as for table 1.

[1] = Table 1, HPLC, 0.1% aqueous formic acid and acetonitrile, 40° C., second value of a mixture of two diastereoisomers
[2] = Table 1, HPLC, 0.1% aqueous formic acid and acetonitrile, 40° C., single value, or first value of a mixture of two diastereoisomers

Structure (SMILES)	logP [1]	logP [2]	other results
Cn1cc(C(=O)N2CCCC2C2CCc3c(F)cccc32)c(C(F)F)n1 (mixture of isomers) [I.01]	2.98	2.88	–
Cn1nc(C(F)F)c(C(=O)N2CCCC2C2CCc3c(F)cccc32)c1F (mixture of isomers) [I.03]	3.35	3.31	–
Cn1nc(C(F)F)c(C(=O)N2CCCC2C2CCc3cc(Cl)cc(Cl)c32)c1Cl (mixture of isomers) [I.09]	4.41	4.34	–
Cn1nc(C(F)F)c(C(=O)N2CCCC2C2CCc3cc(F)cc(F)c32)c1Cl (mixture of isomers) [I.12]	3.59	3.55	–
Cn1nc(C(F)F)c(C(=O)N2CCCC2C2CCc3cc(F)cc(F)c32)c1F (mixture of isomers) [I.13]	3.41	3.35	–
Cn1cc(C(=O)N2CCCC2C2CCc3cc(F)ccc32)c(C(F)F)n1 (mixture of isomers) [I.17]	3.00	2.84	–
Cn1nc(C(F)F)c(C(=O)N2CCCC2C2CCc3cc(F)ccc32)c1F (mixture of isomers) [I.18]	3.37	3.29	–
Cn1cc(C(=O)N2CCCC2C2CCc3ccc(Cl)cc32)c(C(F)F)n1 (mixture of isomers) [I.19]	3.27	3.19	–
Cn1nc(C(F)F)c(C(=O)N2CCCC2C2CCc3ccc(Cl)cc32)c1Cl (mixture of isomers) [I.20]	3.92	3.87	–
Cn1nc(C(F)F)c(C(=O)N2CCCC2C2CCc3ccc(Cl)cc32)c1F (mixture of isomers) [I.21]	3.70	3.68	–
Cn1nc(C(F)F)c(C(=O)N2CCCC2C2CCCc3ccccc32)c1Cl (mixture of isomers) [I.25]	3.79	3.68	–
Cn1nc(C(F)F)c(C(=S)N2CCCC2C2CCCc3ccccc32)c1Cl (mixture of isomers) [I.28]	4.77	4.56	–
Cn1cc(C(=O)N2CCCCC2C2CCc3ccccc32)c(C(F)F)n1 (mixture of isomers) [I.29]	3.13	2.96	–
Cn1nc(C(F)F)c(C(=O)N2CCCCC2C2CCc3ccccc32)c1F (mixture of isomers) [I.30]	3.55	3.44	–
Cn1cc(C(=O)N2CCCCC2C2CCCCc3ccccc32)c(C(F)F)n1 (mixture of isomers) [I.33]	3.68	3.50	–
Cn1nc(C(F)F)c(C(=O)N2CCCCC2C2CCCCc3ccccc32)c1F (mixture of isomers) [I.34]	4.15	3.96	–
Cn1cc(C(=O)N2CCCCC2C2CCOc3ccccc32)c(C(F)F)n1 (mixture of isomers) [I.35]	2.90	2.46	–
Cn1nc(C(F)F)c(C(=O)N2CCCCC2C2CCOc3ccccc32)c1F (mixture of isomers) [I.36]	3.27	2.86	–
O=C(c1ccsc1Br)N1CCCC1C1CCc2c(F)cccc21 (single isomer, unassigned) [I.04]	–	3.87	–
O=C(c1ccsc1Br)N1CCCC1C1CCc2c(F)cccc21 (single isomer, unassigned) [I.05]	–	3.96	–
Cc1cc(C(=O)N2CCCC2C2CCc3c(F)cccc32)c(C)o1 (single isomer, unassigned) [I.06]	–	3.74	–

Structure (SMILES)	logP [1]	logP [2]	other results
Cc1cc(C(=O)N2CCCC2C2CCc3c(F)cccc32)c(C)o1 (single isomer, unassigned) [I.07]	–	3.90	–
Cn1nc(C(=O)N2CCCC2C2CCc3cc(F)cc(F)c32)c(C(F)F)n1 (single isomer, unassigned) [I.14, [2-(5,7-difluoro-2,3-dihydro-1H-inden-1-yl)pyrrolidin-1-yl][5-(difluoromethyl)-2-methyl-2H-1,2,3-triazol-4-yl]methanone]	–	–	chromatographic logP (reversed-phase HPLC column (C 18), Table 1, HPLC, 0.1% aqueous formic acid and acetonitrile, 40° C., single value, or first value of a mixture of two diastereoisomers, read-out: logP): 3.41
Cn1nc(C(=O)N2CCCC2C2CCc3cc(F)cc(F)c32)c(C(F)F)n1 (single isomer, unassigned) [I.15, [2-(5,7-difluoro-2,3-dihydro-1H-inden-1-yl)pyrrolidin-1-yl][5-(difluoromethyl)-2-methyl-2H-1,2,3-triazol-4-yl]methanone]	–	–	chromatographic logP (reversed-phase HPLC column (C 18), separated diastereoisomers, preparation Example 1, read-out: log P): 3.63
Cc1nc(C(F)F)c(C(=O)N2CCCC2C2CCc3cc(F)cc(F)c32)s1 (single isomer, unassigned) [I.37]	–	3.52	–
Cc1nc(C(F)F)c(C(=O)N2CCCC2C2CCc3cc(F)cc(F)c32)s1 (single isomer, unassigned) [I.38]	–	3.55	–
Cn1cc(C(=O)N2CCCC2C2CCc3cc(F)cc(F)c32)c(C(F)(F)F)c1 (single isomer, unassigned) [I.39]	–	3.68	–
Cn1cc(C(=O)N2CCCC2C2CCc3cc(F)cc(F)c32)c(C(F)(F)F)c1 (single isomer, unassigned) [I.40]	–	3.70	–
Cn1nc(C(F)F)c(C(=O)N2CCCC2C2CCc3c(F)cccc32)c1Cl (centres unmarked) [I.02]	–	3.48	–
Cn1cc(C(=O)N2CCCC2C2CCc3cc(Cl)cc(Cl)c32)c(C(F)F)n1 (centres unmarked) [I.08]	–	3.61	–
Cn1nc(C(F)F)c(C(=O)N2CCCC2C2CCc3cc(Cl)cc(Cl)c32)c1F (centres unmarked) [I.10]	–	4.14	–
Cn1cc(C(=O)N2CCCC2C2CCc3cc(F)cc(F)c32)c(C(F)F)n1 (centres unmarked) [I.11]	–	2.96	–
Cn1nc(C(F)F)c(C(=O)N2CCCC2C2CCc3cc(F)ccc32)c1Cl (centres unmarked) [I.16]	–	3.50	–
Cn1cc(C(=O)N2CCCC2C2CCc3ccc(C(C)(C)C)cc32)c(C(F)F)n1 (centres unmarked) [I.22]	–	4.16	–
Cn1nc(C(F)F)c(C(=O)N2CCCC2C2CCc3ccc(C(C)(C)C)cc32)c1Cl (centres unmarked) [I.23]	–	4.82	–
Cn1cc(C(=O)N2CCCCC2C2CCCc3ccccc32)c(C(F)F)n1 (centres unmarked) [I.32]	–	3.17	–
Cn1nc(C(F)F)c(C(=S)N2CCCC2C2CCc3c(F)cccc32)c1F (centres unmarked) [I.41]	–	4.01	–
c1ccc2c(c1)CCC2C1CCCCN1 (centres unmarked) [IIa.01, 2-(2,3-dihydro-1H-inden-1-yl)piperidine]	–	–	chromatographic logP (logP): 0.52
c1ccc2c(c1)CCCC2C1CCCCN1 (centres unmarked) [IIa.02, 2-(1,2,3,4-tetrahydronaphthalen-1-yl)piperidine]	–	–	chromatographic logP (logP): 1.21
c1ccc2c(c1)CCCCC2C1CCCCN1 (centres unmarked) [IIa.03, 2-(6,7,8,9-tetrahydro-5H-benzo[7]annulen-5-yl)piperidine]	–	–	chromatographic logP (logP): 1.31
c1ccc2c(c1)OCCC2C1CCCCN1 (centres unmarked) [IIa.04, 2-(3,4-dihydro-2H-chromen-4-yl)piperidine]	–	–	chromatographic logP (reversed-phase HPLC column (C 18), Table 2, compounds of formula (IIa), HPLC as for table 1, read-out: logP): 0.82
